Experimental data taken from ChEMBL document CHEMBL1221225, “A small molecule that directs differentiation of human ESCs into the pancreatic lineage” (Nat Chem Biol, 2009).

Tests used:
Format in all cases: cell-based
[1] = Activation of PKC signaling in human HUES8 cells assessed as increase in Pdx1-expressing cells at 14 nM after 4 days by immunocytochemistry pregrown in medium with Wnt3a, activin A, FGF10, KAAD-cyclopamine and retinoic acid relative to ILV treated cells
[2] = Activation of PKC signaling in human HUES8 definitive endoderm cells assessed as increase in Pdx1-expressing cells at 14 nM after 4 days by immunocytochemistry (reference value: 2.8+/-0.6%)
[3] = Activation of PKC signaling in human HUES8 definitive endoderm cells assessed as increase in Pdx1-expressing cells at 500 nM after 4 days by immunocytochemistry (reference value: 2.8+/-0.6%)
[4] = Activation of PKC signaling in human HUES8 cells assessed as increase in Pdx1-expressing cells at 500 nM after 4 days by immunocytochemistry pregrown in medium with Wnt3a, activin A, FGF10, KAAD-cyclopamine and retinoic acid relative to ILV treated cells

| SMILES | inhibition [1] | inhibition [2] | inhibition [3] | inhibition [4] |
| --- | --- | --- | --- | --- |
| CCCCCCCCCCCCCC(=O)O[C@@H]1[C@@H](C)[C@@]2(O)[C@@H](C=C(CO)C[C@]3(O)C(=O)C(C)=C[C@@H]23)[C@@H]2C(C)(C)[C@]12OC(C)=O | 21.3% | 18.3% | – | – |
| CC(C)[C@H]1C(=O)N[C@H](CO)Cc2cc(NC(=O)/C=C/C=C/c3ccc(C(F)(F)F)cc3)ccc2N1C | – | – | 12.2% | 15.4% |
